Target: T1, Cholesteryl ester transfer protein (Homo sapiens, UniProt P11597)
T1 sequence (P11597 whole entry): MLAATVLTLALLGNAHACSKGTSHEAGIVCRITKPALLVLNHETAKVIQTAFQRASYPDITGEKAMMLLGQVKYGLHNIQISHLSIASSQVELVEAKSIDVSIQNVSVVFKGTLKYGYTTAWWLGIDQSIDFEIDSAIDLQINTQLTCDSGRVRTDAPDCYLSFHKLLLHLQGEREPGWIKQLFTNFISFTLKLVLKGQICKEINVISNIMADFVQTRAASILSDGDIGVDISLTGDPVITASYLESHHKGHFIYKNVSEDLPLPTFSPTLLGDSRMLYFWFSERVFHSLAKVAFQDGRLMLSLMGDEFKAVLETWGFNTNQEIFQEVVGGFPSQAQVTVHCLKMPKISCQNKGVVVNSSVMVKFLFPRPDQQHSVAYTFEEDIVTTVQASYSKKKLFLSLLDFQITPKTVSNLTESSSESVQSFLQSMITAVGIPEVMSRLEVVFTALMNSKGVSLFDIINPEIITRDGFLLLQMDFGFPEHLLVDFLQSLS
Assay: Cholesteryl Ester Transfer Assay: As a protein source for cholesteryl ester transfer, plasma from healthy persons was used, and as a cholesteryl ester receptor, LDL from healthy persons was used. Samples were treated with each test compound to final concentrations of 16, 80, 400, 2000 and 10000 nM and analyzed in duplicate. For the cholesteryl ester transfer test, 20 μl of plasma, 50 μl of LDL (0.25 mg/ml) and 50 μl of rHDL-agarose (0.25 mg/ml) were added, and a solution containing a test compound was added, followed by reaction at 37° C. Then, centrifugation was performed at 4° C. for 3 minutes to stop the reaction, and 150 μl of the supernatant was taken and transferred to a 96-well plate for radioactivity measurement, and the radioactivity of the plate was measured with a beta-ray detector.
Format: cell-free

IC50 [nM] | SMILES
9.1 | COc1cc(C(F)(F)F)c(-c2ccc(C(=O)O)cc2F)cc1C1=C(CN2C(=O)O[C@H](c3cc(C(F)(F)F)cc(C(F)(F)F)c3)[C@@H]2C)CC(C)(C)CC1
12.3 | COc1cc(C(F)(F)F)c(-c2ccc(C(=O)O)cc2Cl)cc1C1=C(CN2C(=O)O[C@H](c3cc(C(F)(F)F)cc(C(F)(F)F)c3)[C@@H]2C)CC(C)(C)CC1
